Article PMC4319893, “Targeting Protein-Protein Interactions with Trimeric Ligands: High Affinity Inhibitors of the MAGUK Protein Family” (PLoS ONE, 2015)

Key:
[1] = system: single PDZ3 domain; set-up: method as in PMID 21653701; details: observed previously; cited from earlier work
[2] = molecular target: T1, PSD-95 PDZ1-2-3 (Homo sapiens, UniProt P78352); assay: Fluorescence polarization (FP) binding assay, PSD-95 PDZ1-2-3
T1 construct: 7xHis; made in house; host or cells: E. coli BL21(DE3)pLysS
Experimental: (§1) The monomeric FP assay was conducted as previously described except that the proteins were diluted in 50 mM TRIS, 100 mM NaCl, 1 mM ethylenediaminetetraacetate (EDTA), 1 mM DTT.[34] The monomeric probe was only used when monomeric binding to PSD95 PDZ1-2 and PSD95 PDZ1-2-3 was evaluated, whereas 18 was used as probe for evaluating the binding of the dimeric and trimeric ligands. […] In all of the experiments a blank (buffer) and a reference sample (0.5 nM probe in buffer) were used. A total of 30 μl was pipetted into the wells of a 384 flat black bottom well plate. The FP was measured on a Tecan Safire 2 microplate reader (Tecan Group LTD., Männedorf, Germany). The absorption/emission wavelengths were set to 635/670 nm, corresponding to the Cy5 spectra. The obtained IC50 values were converted to K i values using the equations described by Nikolovska-Coleska et al.[35] […] Consequently, the Ki-value will become negative when the difference between the IC50-value and the Kd is too great.[35, 36]

[3] = molecular target: T2, FL PSD-95 (I100W) (Homo sapiens, UniProt P78352, I100W); assay: Stopped-flow spectrometry binding kinetics, FL PSD-95 I100W; details: 50 mM potassium phosphate pH 7.5, 10°C
T2 construct: PSD-95 FL: 61-end; made in house; host or cells: E. coli (pET32m3C vector; QuickChange mutagenesis)
Experimental: (§2) Kinetic experiments using stopped-flow were carried out under the conditions used previously,[37, 38] namely in 50 mM potassium phosphate, pH 7.5 at 10°C. The change in fluorescence upon binding was monitored with a 330 nm band-pass filter following excitation at 280 nm. […] Regarding the fluorophores and the observed changes in fluorescence, several events contribute to the observed signal. […] This could be either through FRET or by absorbing excitation light. Both fluorophores are also themselves excited at 280 nm (less) and 330 nm (more) and their intrinsic fluorescence may change on binding to the proteins.
(§3) This observed rate constant might be the average of the two k obs values observed upon excitation at 280 nm/emission at 330 nm.

[4] = molecular target: T3, FL PSD-95 (I195W) (Homo sapiens, UniProt P78352, I195W); assay: Stopped-flow spectrometry binding kinetics, FL PSD-95 I195W; details: 50 mM potassium phosphate pH 7.5, 10°C
T3 construct: PSD-95 FL: 61-end; made in house; host or cells: E. coli (pET32m3C vector; QuickChange mutagenesis)
Experimental: as §2, §3

[5] = molecular target: T4, FL PSD-95 wild-type (Homo sapiens, UniProt P78352); assay: Stopped-flow spectrometry binding kinetics, FL PSD-95 wild-type; details: 50 mM potassium phosphate pH 7.5, 10°C
T4 construct: PSD-95 FL: 61-end; made in house; host or cells: E. coli (pET32m3C vector; construct donated by M. Zhang)
Experimental: as §2, §3

[6] = molecular target: PSD-95 PDZ1-2 (Homo sapiens, UniProt P78352); details: FP
Experimental: as §1

Substance | observed rate constant dansyl-1/PDZ3 [1] | fold lower affinity compared to trimeric ligand 17, PDZ1-2-3 [2] | kon app, PSD-95 FL I100W [3] | kon app, PSD-95 FL I195W [4] | kon app, PSD-95 wild-type [5] | fold lower affinity compared to trimeric ligand 17, PDZ1-2 [6]
dansyl-1: N-terminally dansylated CRIPT hexapeptide YKQTSV | 1.6 s⁻¹ | – | – | – | – | –
YKQTSV [Compound 1] | – | > 1000 fold | 6.3e+06 ± 190000 M⁻¹ s⁻¹ | 6.3e+06 ± 130000 M⁻¹ s⁻¹ | 6e+06 ± 100000 M⁻¹ s⁻¹ | > 1000 fold
